± gives the expanded uncertainty stated by the source.
Experiment: xn = mol fraction of the nth substance listed
Conditions: 101 kPa, Liquid; for viscosity: Capillary tube (Ostwald / Ubbelohde) method; for mass density: Vibrating tube method

CCCC(C)O (stereo not drawn) [pentan-2-ol] + NC=O
Conditions | mass density, 298.15 K [kg/m3] | mass density, 303.15 K [kg/m3] | mass density, 308.15 K [kg/m3] | mass density, 313.15 K [kg/m3] | viscosity, 298.15 K [mPa·s] | viscosity, 303.15 K [mPa·s] | viscosity, 308.15 K [mPa·s] | viscosity, 313.15 K [mPa·s]
x2 = 0 | 805.05 ± 1 | 800.88 ± 1 | 796.89 ± 1 | 792.62 ± 1 | 3.423 ± 0.14 | 2.834 ± 0.12 | 2.348 ± 0.095 | 1.979 ± 0.08
x2 = 0.0823 | 814.65 ± 1 | 810.45 ± 1 | 806.51 ± 1 | 802.09 ± 1 | 3.386 ± 0.14 | 2.811 ± 0.11 | 2.328 ± 0.095 | 1.959 ± 0.08
x2 = 0.1639 | 825.39 ± 1 | 821.13 ± 1 | 817.19 ± 1 | 812.73 ± 1 | 3.363 ± 0.14 | 2.801 ± 0.11 | 2.329 ± 0.095 | 1.973 ± 0.08
x2 = 0.2393 | 836.58 ± 1 | 832.27 ± 1 | 828.29 ± 1 | 823.79 ± 1 | 3.353 ± 0.14 | 2.811 ± 0.11 | 2.348 ± 0.095 | 2.004 ± 0.081
x2 = 0.3541 | 856.48 ± 1 | 852.09 ± 1 | 848.01 ± 1 | 843.52 ± 1 | 3.379 ± 0.14 | 2.864 ± 0.12 | 2.409 ± 0.098 | 2.075 ± 0.084
x2 = 0.4444 | 875.19 ± 1 | 870.77 ± 1 | 866.59 ± 1 | 862.13 ± 1 | 3.402 ± 0.14 | 2.911 ± 0.12 | 2.468 ± 0.1 | 2.144 ± 0.087
x2 = 0.5612 | 904.57 ± 1 | 900.13 ± 1 | 895.87 ± 1 | 891.4 ± 1 | 3.422 ± 0.14 | 2.964 ± 0.12 | 2.544 ± 0.1 | 2.237 ± 0.091
x2 = 0.6497 | 932.05 ± 1 | 927.6 ± 1 | 923.33 ± 1 | 918.86 ± 1 | 3.431 ± 0.14 | 2.989 ± 0.12 | 2.587 ± 0.11 | 2.298 ± 0.093
x2 = 0.7431 | 967.72 ± 1 | 963.24 ± 1 | 959 ± 1 | 954.54 ± 1 | 3.42 ± 0.14 | 3.003 ± 0.12 | 2.615 ± 0.11 | 2.343 ± 0.095
x2 = 0.8502 | 1020.4 ± 1 | 1016.03 ± 1 | 1011.79 ± 1 | 1007.32 ± 1 | 3.384 ± 0.14 | 3.001 ± 0.12 | 2.628 ± 0.11 | 2.38 ± 0.096
x2 = 0.9398 | 1079.03 ± 1 | 1074.66 ± 1 | 1070.45 ± 1 | 1066.08 ± 1 | 3.341 ± 0.14 | 2.988 ± 0.12 | 2.635 ± 0.11 | 2.403 ± 0.097

From the NIST ThermoML archive (doi:10.1016/j.jct.2013.09.043)
